Experimental data taken from US20070059824A1, “Human umbilical cord blood-derived pluripotent fibroblast-like-macrophages” (priority 2005, published 2007).

Assays:
[1] = system: insulin-expressing cells derived from TCB f-MΦ; test: Insulin release from insulin-expressing cells derived from TCB f-MΦ (ELISA); format: cell-based, human; settings: 1 h
Protocol: TPO-expanded CB f-MΦ (TCB f-MΦ) cultured in 24-well tissue culture plates (Costar, Corning, N.Y.) at 60-70% confluence was treated for 3 days with 1 μg/ml LPS+25 mM glucose in 1 ml 7% FBS-RPMI 1640 medium per well. TCB f-MΦ cultured in the same concentration of glucose served as control. Insulin release was performed as previously described with minor modifications [F. Schuit, A. De Vos, S. Farfari, K. Moens, D. Pipeleers, T. Brun, M. Prentki, Metabolic fate of glucose in purified islet cells. Glucose-regulated anaplerosis in beta cells, J. Biol. Chem. 272 (1997) 18572-18579; and N. Lumelsky, O. Blondel, P. Laeng, I. Velasco, R. Ravin, R. McKay, Differentiation of embryonic stem cells to insulin-secreting structures similar to pancreatic islets, Science 292 (2001) 1389-1394]. Cells were washed 5 times with PBS to remove the serum and then incubated with Kreb's buffer (120 mM NaCl, 5 mM KCl, 2.5 mM CaCl2, 1.1 mM MgCl2, 25 mM NaHCO3, 0.1% BSA) [N. Lumelsky, O. Blondel, P. Laeng, I. Velasco, R. Ravin, R. McKay, Differentiation of embryonic stem cells to insulin-secreting structures similar to pancreatic islets, Science 292 (2001) 1389-1394] for 30 min in the absence of glucose, at 37° C., 8% CO2 conditions. After removing the Kreb's buffer, cells were incubated with different concentration of glucose (0, 5, 10, and 25 mM) and/or other secretagogues (10 μM tolbudamide (Sigma), 500 μM diazoxide (Sigma), or 25 mM mannite (Sigma) in 300 μl Kreb's buffer/well for 1 h. Each treatment had duplicated wells. Insulin levels were monitored using an ultrasensitive human insulin enzyme-linked immunosorbent assay (ELISA) kit (Alpco Diagnostics, Windham, N.H.) following the manufacturer's protocols. Cell number/well from each treatment was finally quantified for calculating insulin level.

CB f-MΦ [2] = test: Cell proliferation of CB f-MΦ with TPO (CyQUANT Cell Proliferation Assay); format: cell-based, human
Protocol: Therefore, this stage f-MΦ, at ˜80% purity, was selected to examine the effect of TPO. Cells were washed with RPMI 1640 medium three times and then incubated with different concentration of TPO, such as 80, 40, 20, 10, 5, 2.5, 1.25, 0.625, and 0 ng/ml in the 8-well Lab-Tek chamber slides (Nunc, Naperville, Ill.) at 37° C., 8% CO2 conditions. After 4 days, cell proliferation was evaluated using CyQUANT® Cell Proliferation Assay Kit (Molecular Probes, Eugene, Oreg.). Cell fluorescence was measured using a Synergy HT Multi-Detection microplate reader (Bio-Tek Instruments Inc., Winooski, Vt.) equipped with filters for ˜480 nm excitation and ˜520 nm emission. The optical values were analyzed using the manufacturer's software KC4 v3.1.

CB f-MΦ [3] = test: Immunostaining of TPO-expanded CB f-MΦ for phenotype markers; format: cell-based, human
Protocol: For f-MΦ expansion, the cells at 70% confluence were passaged at ratio 1:2 by pippetting and gently scraping with 100 μl tips (Rainin, Woburn, Mass.). Media were changed every 5-7 days with the fresh RPMI 1640 medium supplemented with 3.5% fetal bovine serum and 5 ng/ml thrombopoietin (TPO).

TCB f-MΦ [4] = test: Differentiation of f-MΦ into insulin-expressing cells with LPS and high glucose (immunostaining); format: cell-based, human
Description: The final insulin concentration in the culture medium was 0.196 μU/ml.

TCB f-MΦ [5] = settings: 50 ng/ml VEGF for 5-7 days
Protocol: The cells were incubated for 20 min at room temperature with 2.5% diluted normal horse serum (Vector Laboratories, Burlingame, Calif.) to block nonspecific staining. Cells were then incubated with primary antibodies, the isotype-matched IgG1κ (BD PharMingen, San Diego, Calif.) (as control for mouse monoclonal antibodies), and normal rabbit serum (as control for rabbit polyclonal antibodies). After staining, the slides were mounted with Mounting Medium (Vector Laboratories, Burlingame, Calif.). Cells were viewed and photographed using a Zeiss LSM 510 META confocal microscope equipped with a 25× water immersion objective (Carl Zeiss Inc.), with Argon 488 nm laser for FITC fluorochrome filtered through LP505.
The TPO-expanded CB f-MΦ was treated with 50 ng/ml VEGF (Cell Sciences Inc., Canton, Mass.) in RPMI-1640 medium supplemented with 7% heat inactivated FBS as previously described [Y. Zhao, D. Glesne, E. Huberman, A human peripheral blood monocyte-derived subset acts as pluripotent stem cells, Proc. Natl. Acad. Sci. U.S.A. 100 (2003) 2426-2431]. After 5-7 days, the treated and untreated cells were prepared for characterizing with endothelial markers, including antibodies to Flt-1, Flk-1, vWF, CD31, and incorporating Dil-Ac-LDL as previously described [D. A. Ingram, L. E. Mead, H. Tanaka, V. Meade, A. Fenoglio, K. Mortell, K. Pollok, M. J. Ferkowicz, D. Gilley, M. C.

[6] = system: Human umbilical cord blood-derived monocytes; test: Generation of f-MΦ from cord blood monocytes with M-CSF (morphology, cell counting); format: cell-based
Protocol: Human umbilical cord blood samples (50-100 ml/unit) were obtained from healthy donors (Life-Source Blood Services, Glenview, Ill.). The f-MΦ culture was performed as previously described using human peripheral blood (14). Briefly, purified monocytes were seeded into the 8-Well Lab-Tek II Chamber Slide (Fisher Scientific) at 1×10^5 cells/ml, 0.5 ml/well in RPMI 1640 medium supplemented with 7% fetal bovine serum (Invitrogen, Carlsbad, Calif.) and 50 ng/ml M-CSF. The purity of f-MΦ normally reached 80-90% after incubation for 10-14 days at 37° C., 8% CO2 and was then used for experiments.

[7] = 5 ng/ml TPO, culture for 2 months

Q: For `CC1=NS(=O)(=O)c2cc(Cl)ccc2N1` [diazoxide], which insulin release ([1]; 500 μM, in the presence of 25 mM glucose) is on record?
A: inhibits insulin release

Q: Which insulin release ([1]; 25 mM, osmolarity control) does the source give for `OC[C@@H](O)[C@@H](O)[C@H](O)[C@H](O)CO` [mannite] here?
A: failed to stimulate insulin release

Q: How did the insulin release ([1]; 10 μM, in the presence of 5 mM glucose) turn out when `CCCCNC(=O)NS(=O)(=O)c1ccc(C)cc1` [tolbutamide] was run?
A: stimulates insulin release

Q: For Thrombopoietin [TPO], which “cell number relative to TPO-untreated CB f-MΦ” value (CB f-MΦ [2]; TPO 2.5-5 ng/ml) is on record?
A: about 2 times

Q: What about the “cell number relative to control monocytes” value (CB f-MΦ [2]; TPO 2.5-5 ng/ml) of the same molecule?
A: ~10 times

Q: And the “proliferation of CB f-MΦ at higher dosage” value (CB f-MΦ [2]; TPO >40 ng/ml)?
A: inhibited the proliferation

Q: What about the “CD34 expression, share of cells” value (CB f-MΦ [3]; [7]) of the same molecule?
A: ~30%

Q: And the “expression of CD45, CD14, CD163 and CD117” value (CB f-MΦ [3]; [7])?
A: at the same level as parental CB f-MΦ

Q: And the “expression of platelet and megakaryocyte markers CD41a, CD41b, CD42b” value (CB f-MΦ [3]; 4th and 5th passaged cells after TPO expansion)?
A: not induced

Q: Which “cells expressing glucagon-like peptide 1 receptor” value (TCB f-MΦ [4]; CB f-MΦ, 50 ng/ml LPS in the presence of 25 mM glucose for 2 days) does the source give for lipopolysaccharide [LPS] here?
A: around 70%

Q: And the “cells strongly positive for insulin and C-peptide” value (TCB f-MΦ [4]; LPS 1 μg/ml in the presence of 25 mM glucose)?
A: 85-90%

Q: How did the “expression of endothelial cell-associated markers” value (TCB f-MΦ [5]) turn out when “vascular endothelial cell growth factor [VEGF]” was run?
A: significantly expressed Flt-1, Flk-1, vWF, and CD31

B1: macrophage colony-stimulating factor (protein, UniProt P09603 33-554, looked up)
Macrophage colony-stimulating …: EEVSEYCSHMIGSGHLQSLQRLIDSQMETSCQITFEFVDQEQLKDPVCYLKKAFLLVQDIMEDTMRFRDNTPNAIAIVQLQELSLRLKSCFTKDYEEHDKACVRTFYETPLQLLEKVKNVFNETKNLLDKDWNIFSKNCNNSFAECSSQDVVTKPDCNCLYPKAIPSSDPASVSPHQPLAPSMAPVAGLTWEDSEGTEGSSLLPGEQPLHTVDPGSAKQRPPRSTCQSFEPPETPVVKDSTIGGSPQPRPSVGAFNPGMEDILDSAMGTNWVPEEASGEASEIPVPQGTELSPSRPGGGSMQTEPARPSNFLSASSPLPASAKGQQPADVTGTALPRVGPVRPTGQDWNHTPQKTDHPSALLRDPPEPGSPRISSLRPQGLSNPSTLSAQPQLSRSHSSGSVLPLGELEGRRSTRDRRSPAEPEGGPASEGAARPLPRFNSVPLTDTGHERQSEGSFSPQLQESVFHLLVPSVILVLLAVGGLLFYRWRRRSHQEPQRADSPLEQPEGSPLTQDDRQVELPV
notes: Recombinant human macrophage colony-stimulating factor from Sigma
Q: How did the cells elongated ([6]; 50 ng/ml M-CSF for 10-14 days) turn out when B1 was run?
A: 80-90%

Q: What about the cell number ([6]; 50 ng/ml M-CSF, FIG. 1) of the same molecule?
A: significantly increased the cell number
